Data on eleven compounds can be found in article PMC8000592, “Discovery and Optimization of Selective Inhibitors of Meprin α (Part I)” (Pharmaceuticals, 2021).

A word on the IC50: it is the midpoint of a concentration-inhibition curve. Usually Ki stands for a dissociation constant, usually derived from enzyme kinetics or from competition with a known ligand.

A value given as a limit tells only on which side of the number the result lay.

For data set [1], the target named is T1, MMP2 (Homo sapiens, UniProt P08253).
T1 construct: purchased R&D Systems 902-MP
T1 sequence (P08253 110-660): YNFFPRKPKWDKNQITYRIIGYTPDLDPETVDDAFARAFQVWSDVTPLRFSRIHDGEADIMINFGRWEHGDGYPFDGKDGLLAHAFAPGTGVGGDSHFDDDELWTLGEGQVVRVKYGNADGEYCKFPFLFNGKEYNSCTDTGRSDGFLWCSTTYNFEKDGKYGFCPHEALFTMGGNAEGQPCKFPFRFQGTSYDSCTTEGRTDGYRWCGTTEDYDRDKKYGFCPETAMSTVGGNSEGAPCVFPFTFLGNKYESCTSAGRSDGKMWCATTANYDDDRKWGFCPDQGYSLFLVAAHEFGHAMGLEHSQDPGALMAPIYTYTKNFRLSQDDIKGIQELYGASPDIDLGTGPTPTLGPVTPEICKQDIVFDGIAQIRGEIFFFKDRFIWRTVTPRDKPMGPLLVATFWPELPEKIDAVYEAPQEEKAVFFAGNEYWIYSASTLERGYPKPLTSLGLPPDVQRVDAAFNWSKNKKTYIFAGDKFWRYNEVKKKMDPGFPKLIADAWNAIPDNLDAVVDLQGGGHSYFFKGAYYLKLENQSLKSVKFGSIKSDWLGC
As to the kind of experiment: MMP assay (Mca-KPLGL-Dpa-AR-NH2 substrate). The format is biochemical. The note with it: triplicate, 10-point, 3:1 serial dilution, highest concentration 17.4 µM. The procedure: (§1) We were able to procure 64 out of 87 selected compounds from commercial sources, which we tested in triplicate, 10-point, 3:1 serial dilution concentration response format starting at the highest concentration of 17.4 µM against both meprin α and meprin β. In addition to meprins, we also tested 64 hits against related metzincins (MMP-2, MMP-3, MMP-8, MMP-9, MMP-10, MMP-14, ADAM10, and ADAM17) to ascertain general nonpromiscuity against zinc-dependent proteases.
(§2) All assays followed the same general protocol. A 5 µL portion of 2 × enzyme solution (5 nM) in assay buffer (50 mM Tricine, 50 mM NaCl, 10 mM CaCl2, 0.05% Brij-35, pH 7.5) was added to solid bottom black 384 plates (Nunc, cat# 264705). Next, test compounds and pharmacological controls were added to corresponding wells using a 384-pin tool device (V&P Scientific, San Diego, CA, USA). After 30 min incubation at RT, the reactions were started by addition of 5 µL of 2x solutions of substrate (R&D Systems cat#: ES010, Mca-KPLGL-Dpa-AR-NH2, 20 µM). Reactions were incubated at RT for 1 h, after which the fluorescence was measured using the Synergy H4 multimode microplate reader (Biotek Instruments) (λexcitation = 324 nm, λemission = 390 nm).

In data set [2] the target is MMP3 (Homo sapiens, UniProt P08254). As to the kind of experiment: MMP assay (Mca-KPLGL-Dpa-AR-NH2 substrate). The format is biochemical. The note with it: triplicate, 10-point, 3:1 serial dilution, highest concentration 17.4 µM. Here is the method:
as §1, §2

Data set [3] has as its target T2, MMP9 (Homo sapiens, UniProt P14780).
T2 construct: purchased R&D Systems 911-MP
Put plainly: MMP assay (Mca-KPLGL-Dpa-AR-NH2 substrate). The format is biochemical. The conditions noted are these: triplicate, 10-point, 3:1 serial dilution, highest concentration 17.4 µM. The procedure: as §1, §2

In data set [4] the test system is BJ skin fibroblasts and primary melanocytes. As to the kind of experiment: Cell toxicity studies (CellTiter-Glo, 72 h). The format is cell-based. The note with it: skin fibroblast and melanocyte viability. Here is the method: We also tested representative compounds from each scaffold for effects on skin fibroblast and melanocyte viability to ascertain cytotoxicity towards various skin cell types.
Test compounds were solubilized in 100% DMSO and added to polypropylene 384 well plates (Greiner cat# 781280). The 1250 of BJ skin fibroblasts (ATCC CRL-2522) and primary melanocytes (ATCC PCS-200-013) were plated in 384 well plates in 8 µL of serum-free media […]. Test compounds and pharmacological assay control (lapatinib) were prepared as 10-point, 1:3 serial dilutions starting at 10 mM, then added to the cells using the pin tool mounted on the Integra 384. Plates were incubated for 72 h at 37 °C, 5% CO2 and 95% relative humidity. […] Luminescence was recorded using a Biotek Synergy H1 multimode microplate reader. Viability was expressed as a percentage relative to wells containing media only (0%) and wells containing cells treated with DMSO only (100%). Three parameters were calculated on a per plate basis: (a) the signal-to-background ratio (S/B); (b) the coefficient for variation (CV; CV = (standard deviation/mean) × 100)) for all compound test wells; and (c) the Z’-factor. IC50 values were calculated by fitting normalized data to sigmoidal log versus response equation utilizing nonlinear regression analysis from GraphPad Prizm 8.
(Cellular ATP, detected with luciferase, serves as a proxy for viable cell number.)

Data set [5] addresses meprin β. The conditions noted are these: cited from earlier work.
Data set [6] relates to MMP and ADAM. The conditions noted are these: cited from earlier work.

T2 sequence (P14780 94-707): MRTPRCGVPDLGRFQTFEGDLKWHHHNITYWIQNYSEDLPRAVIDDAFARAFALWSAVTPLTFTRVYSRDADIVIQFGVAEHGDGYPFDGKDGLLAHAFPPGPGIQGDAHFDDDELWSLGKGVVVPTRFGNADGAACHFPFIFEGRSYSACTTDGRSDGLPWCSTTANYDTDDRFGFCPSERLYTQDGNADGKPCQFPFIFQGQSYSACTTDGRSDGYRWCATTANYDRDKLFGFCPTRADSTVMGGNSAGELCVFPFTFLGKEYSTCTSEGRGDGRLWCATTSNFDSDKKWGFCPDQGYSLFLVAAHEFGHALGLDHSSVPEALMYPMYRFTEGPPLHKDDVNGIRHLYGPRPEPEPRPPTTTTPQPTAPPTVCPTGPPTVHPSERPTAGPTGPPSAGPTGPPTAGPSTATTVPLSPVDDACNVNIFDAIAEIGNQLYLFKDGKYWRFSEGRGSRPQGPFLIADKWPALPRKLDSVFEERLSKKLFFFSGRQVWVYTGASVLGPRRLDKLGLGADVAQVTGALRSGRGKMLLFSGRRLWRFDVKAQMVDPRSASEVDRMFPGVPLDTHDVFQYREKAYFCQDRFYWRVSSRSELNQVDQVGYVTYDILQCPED
Sequence of MMP3 (P08254 100-477, species assumed): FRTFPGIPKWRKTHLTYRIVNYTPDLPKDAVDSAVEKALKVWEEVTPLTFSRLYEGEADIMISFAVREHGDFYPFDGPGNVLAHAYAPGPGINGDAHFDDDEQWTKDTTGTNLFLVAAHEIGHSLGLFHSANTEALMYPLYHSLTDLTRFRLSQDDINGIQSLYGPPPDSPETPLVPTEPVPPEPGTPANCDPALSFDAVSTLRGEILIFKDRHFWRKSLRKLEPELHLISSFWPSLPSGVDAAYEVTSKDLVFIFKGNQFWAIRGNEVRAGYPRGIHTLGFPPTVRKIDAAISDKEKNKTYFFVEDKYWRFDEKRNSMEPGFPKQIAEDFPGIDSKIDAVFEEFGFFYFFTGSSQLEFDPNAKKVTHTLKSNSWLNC

Take `O=C(CSc1nnc(NC(=O)c2ccccc2)s1)NO` [Compound 19847]: the values for the IC50 in data set [1], in data set [2] and in data set [3] were 2.87 µM, > 17 µM and > 17 µM, respectively.

As to `O=C(CSc1nnc(NC(=O)COc2ccccc2)s1)NO` [Compound 19848], the IC50 in data set [1], in data set [2] and in data set [3] was > 17 µM in each case.

For the compound `COc1cc(OC)cc(C(=O)CNc2nnc(SCC(=O)NO)s2)c1` [Compound 19849], the IC50 in data set [1], in data set [2] and in data set [3] was > 17 µM in each case.

Turning to `COc1ccc(-n2c(CSc3ncccn3)nnc2SCC(=O)NO)cc1` [Compound 19855], the IC50 in data set [1], in data set [2] and in data set [3] was > 17 µM throughout.

Take `O=C(CCN(Cc1cccs1)S(=O)(=O)c1ccc([N+](=O)[O-])cc1)NO` [Compound 162799]: the 50% inhibitory concentration (IC50) in data set [1], in data set [2] and in data set [3] was > 17 µM each time.

With `O=C(CCN(Cc1ccccc1)S(=O)(=O)c1ccc(F)cc1)NO` [Compound 162808], the “cytotoxicity (effect on cell viability)” value in data set [4] was “no cytotoxicity”. The figures for the IC50 in data set [1], in data set [2] and in data set [3] were 17 µM, > 17 µM and > 17 µM, respectively.

With `O=C(COc1ccc(Cl)cc1Cl)NO` [Compound 1596857], the IC50 in data set [1], in data set [2] and in data set [3] was > 17 µM throughout.

As to `O=C(Nc1cc(C(=O)Nc2ccc(S(=O)(=O)O)cc2S(=O)(=O)O)cc(C(=O)Nc2ccc(S(=O)(=O)O)cc2S(=O)(=O)O)c1)Nc1cc(C(=O)Nc2ccc(S(=O)(=O)O)cc2S(=O)(=O)O)cc(C(=O)Nc2ccc(S(=O)(=O)O)cc2S(=O)(=O)O)c1` [NFF449], the Ki in data set [5] was 0.022 µM. Further, the “selectivity against adamalysins and matrixins” value in data set [6] is listed as “good selectivity”.

For the compound `O=[N+]([O-])c1ccc(CN2CCC3(CCc4ccccc43)CC2)o1` [SR207820], the IC50 in data set [1] was > 17 µM; in data set [2], 17 µM; in data set [3], > 17 µM.

Take `O=C(c1ccc(C(=O)O)c([N+](=O)[O-])c1)c1ccc(C(=O)O)c([N+](=O)[O-])c1` [SR355996]: the IC50 in data set [1] is > 17 µM; in data set [2], > 17 µM; in data set [3] it was 17 µM.

With `CSc1nnc2c(n1)OC(c1ccc([N+](=O)[O-])o1)Nc1ccccc1-2` (stereo not drawn) [SR412882], the IC50 is > 17 µM in data set [1], 15 µM in data set [2] and > 17 µM in data set [3].
